Experiment [1] addresses Uncharacterized serine/threonine-protein kinase SBK3 (Homo sapiens) (UniProt P0C264). The experiment in a line: Inhibition of SgK110 (unknown origin) assessed as remaining activity at 1 uM by Kinome scan method relative to control.
Experiment [2] concerns the target T1, Serine/threonine-protein kinase TAO3 (Homo sapiens) (UniProt Q9H2K8).
T1 sequence (whole entry): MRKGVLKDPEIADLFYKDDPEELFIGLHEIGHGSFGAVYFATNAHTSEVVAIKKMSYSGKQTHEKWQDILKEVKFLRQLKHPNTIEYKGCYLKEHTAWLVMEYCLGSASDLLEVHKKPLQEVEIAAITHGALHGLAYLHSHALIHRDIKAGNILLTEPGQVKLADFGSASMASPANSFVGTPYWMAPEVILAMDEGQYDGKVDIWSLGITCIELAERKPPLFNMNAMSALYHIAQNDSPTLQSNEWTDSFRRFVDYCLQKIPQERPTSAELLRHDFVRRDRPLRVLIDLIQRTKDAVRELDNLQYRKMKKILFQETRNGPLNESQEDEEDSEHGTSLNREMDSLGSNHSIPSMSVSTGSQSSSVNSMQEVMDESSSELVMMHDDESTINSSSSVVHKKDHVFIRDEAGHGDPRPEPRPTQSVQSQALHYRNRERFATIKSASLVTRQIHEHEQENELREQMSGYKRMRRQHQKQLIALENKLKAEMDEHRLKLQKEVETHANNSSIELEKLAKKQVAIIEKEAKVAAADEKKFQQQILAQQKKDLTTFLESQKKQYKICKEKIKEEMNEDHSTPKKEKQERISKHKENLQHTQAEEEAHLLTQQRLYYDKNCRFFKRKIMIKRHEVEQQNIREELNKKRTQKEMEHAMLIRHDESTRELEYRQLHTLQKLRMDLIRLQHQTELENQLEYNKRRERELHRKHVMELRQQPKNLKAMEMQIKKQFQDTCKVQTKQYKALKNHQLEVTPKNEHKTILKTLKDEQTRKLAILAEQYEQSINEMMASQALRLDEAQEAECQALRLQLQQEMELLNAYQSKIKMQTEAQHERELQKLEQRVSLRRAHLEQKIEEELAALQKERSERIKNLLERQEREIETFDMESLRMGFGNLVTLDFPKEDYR
The experiment in a line: Inhibition of human TAOK3 assessed as residual activity at 1 uM using 3xChocktide-PKC(19-31) as substrate in presence of 33P-ATP by ProQinase assay relative to control.

Experiment [3] is described as follows: Anti-inflammatory activity against human derived medium respond PBMC cells assessed as inhibition in stimulated INFgamma cytokine release incubated for 2 hrs in the presence of LPS/SEB/aCD28 by Luminex based sandwich immunoassay. The format is functional, cell-based.
Experiment [4] relates to Hepatocyte growth factor receptor (Homo sapiens), P08581 [M1250T]. Briefly: Inhibition of MET M1250T mutant (unknown origin) assessed as remaining activity at 1 uM by Kinome scan method relative to control.
Experiment [5] addresses T2, Serine/threonine-protein kinase DCLK2 (Homo sapiens) (UniProt Q8N568).
T2 sequence (whole entry): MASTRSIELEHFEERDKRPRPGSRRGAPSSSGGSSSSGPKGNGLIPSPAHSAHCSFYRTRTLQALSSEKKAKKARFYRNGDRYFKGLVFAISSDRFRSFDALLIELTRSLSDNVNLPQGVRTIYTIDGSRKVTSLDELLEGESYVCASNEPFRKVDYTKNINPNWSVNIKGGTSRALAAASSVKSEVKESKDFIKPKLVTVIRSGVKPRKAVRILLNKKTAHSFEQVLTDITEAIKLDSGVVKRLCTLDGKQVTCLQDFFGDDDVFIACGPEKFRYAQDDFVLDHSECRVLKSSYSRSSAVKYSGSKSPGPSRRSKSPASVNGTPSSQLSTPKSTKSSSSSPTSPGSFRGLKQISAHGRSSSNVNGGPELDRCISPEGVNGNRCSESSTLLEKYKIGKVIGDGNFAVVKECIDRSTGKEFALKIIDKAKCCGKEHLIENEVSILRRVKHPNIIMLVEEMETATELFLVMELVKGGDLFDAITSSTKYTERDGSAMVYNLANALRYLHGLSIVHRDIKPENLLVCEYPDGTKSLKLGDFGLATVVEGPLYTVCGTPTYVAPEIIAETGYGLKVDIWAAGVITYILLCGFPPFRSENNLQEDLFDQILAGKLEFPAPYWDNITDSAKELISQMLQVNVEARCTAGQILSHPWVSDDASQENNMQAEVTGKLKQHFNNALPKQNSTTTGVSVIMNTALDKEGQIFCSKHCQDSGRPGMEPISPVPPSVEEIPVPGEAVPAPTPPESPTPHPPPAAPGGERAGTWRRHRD
The experiment in a line: Inhibition of human DCAMKL2 assessed as residual activity at 1 uM using RBER-CHKtide as substrate in presence of 33P-ATP by ProQinase assay relative to control.

Experiment [6] deals with Serine/threonine-protein kinase D2 (Homo sapiens) (UniProt Q9BZL6). Briefly: Inhibition of human PRKD2 assessed as residual activity at 1 uM using RBER-CHKtide as substrate in presence of 33P-ATP by ProQinase assay relative to control.
Experiment [7] addresses MAP/microtubule affinity-regulating kinase 3 (Homo sapiens) (UniProt P27448). The experiment in a line: Inhibition of human MARK3 assessed as residual activity at 1 uM using RBER-CHKtide as substrate in presence of 33P-ATP by ProQinase assay relative to control.
In experiment [8] the target is CDK4/Cyclin D3 (Homo sapiens) (UniProt P11802+P30281). Briefly: Inhibition of human CDK4/CycD3 assessed as residual activity at 1 uM using RBER-CHKtide as substrate in presence of 33P-ATP by ProQinase assay relative to control. The class given is protein-complex assay.
Experiment [9] has as its target Mitogen-activated protein kinase kinase kinase kinase 5 (Homo sapiens) (UniProt Q9Y4K4). The experiment in a line: Inhibition of human MAP4K5 assessed as residual activity at 1 uM using casein as substrate in presence of 33P-ATP by ProQinase assay relative to control.
The target in experiment [10] is Cytoplasmic tyrosine-protein kinase BMX (Homo sapiens) (UniProt P51813). The experiment in a line: Inhibition of BMX (unknown origin) assessed as remaining activity at 1 uM by Kinome scan method relative to control.
Experiment [11] deals with Serine/threonine-protein kinase 16 (Homo sapiens) (UniProt O75716). The experiment in a line: Inhibition of STK16 (unknown origin) assessed as remaining activity at 1 uM by Kinome scan method relative to control.
Sequence of Serine/threonine-protein kinase 16 (Homo sapiens) (O75716 whole entry): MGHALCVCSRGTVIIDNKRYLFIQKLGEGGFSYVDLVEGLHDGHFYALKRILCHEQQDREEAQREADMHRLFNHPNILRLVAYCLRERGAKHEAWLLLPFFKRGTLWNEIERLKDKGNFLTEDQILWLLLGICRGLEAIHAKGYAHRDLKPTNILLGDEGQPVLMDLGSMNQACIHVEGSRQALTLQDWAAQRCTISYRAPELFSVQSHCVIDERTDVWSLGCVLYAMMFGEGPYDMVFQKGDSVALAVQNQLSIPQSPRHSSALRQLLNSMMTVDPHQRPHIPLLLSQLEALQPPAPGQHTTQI

Sequence of Cytoplasmic tyrosine-protein kinase BMX (Homo sapiens) (P51813 whole entry): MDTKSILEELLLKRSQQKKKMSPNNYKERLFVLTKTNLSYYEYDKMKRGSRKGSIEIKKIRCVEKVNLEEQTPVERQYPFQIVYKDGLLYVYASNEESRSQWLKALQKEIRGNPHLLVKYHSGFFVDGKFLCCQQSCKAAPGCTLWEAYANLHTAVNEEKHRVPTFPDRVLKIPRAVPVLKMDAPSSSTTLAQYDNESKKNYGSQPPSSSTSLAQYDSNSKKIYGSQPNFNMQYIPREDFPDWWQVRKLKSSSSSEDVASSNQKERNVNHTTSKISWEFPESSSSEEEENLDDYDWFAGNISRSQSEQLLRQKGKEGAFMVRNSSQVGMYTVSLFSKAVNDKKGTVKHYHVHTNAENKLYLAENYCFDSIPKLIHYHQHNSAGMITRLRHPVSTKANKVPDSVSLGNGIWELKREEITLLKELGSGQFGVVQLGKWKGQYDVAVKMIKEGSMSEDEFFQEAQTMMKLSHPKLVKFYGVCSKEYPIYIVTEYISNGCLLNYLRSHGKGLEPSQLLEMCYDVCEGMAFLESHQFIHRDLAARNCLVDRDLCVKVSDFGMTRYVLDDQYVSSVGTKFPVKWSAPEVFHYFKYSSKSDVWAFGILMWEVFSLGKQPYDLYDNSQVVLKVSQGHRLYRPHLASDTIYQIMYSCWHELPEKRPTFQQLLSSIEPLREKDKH
Sequence of Mitogen-activated protein kinase kinase kinase kinase 5 (Homo sapiens) (Q9Y4K4 whole entry, looked up): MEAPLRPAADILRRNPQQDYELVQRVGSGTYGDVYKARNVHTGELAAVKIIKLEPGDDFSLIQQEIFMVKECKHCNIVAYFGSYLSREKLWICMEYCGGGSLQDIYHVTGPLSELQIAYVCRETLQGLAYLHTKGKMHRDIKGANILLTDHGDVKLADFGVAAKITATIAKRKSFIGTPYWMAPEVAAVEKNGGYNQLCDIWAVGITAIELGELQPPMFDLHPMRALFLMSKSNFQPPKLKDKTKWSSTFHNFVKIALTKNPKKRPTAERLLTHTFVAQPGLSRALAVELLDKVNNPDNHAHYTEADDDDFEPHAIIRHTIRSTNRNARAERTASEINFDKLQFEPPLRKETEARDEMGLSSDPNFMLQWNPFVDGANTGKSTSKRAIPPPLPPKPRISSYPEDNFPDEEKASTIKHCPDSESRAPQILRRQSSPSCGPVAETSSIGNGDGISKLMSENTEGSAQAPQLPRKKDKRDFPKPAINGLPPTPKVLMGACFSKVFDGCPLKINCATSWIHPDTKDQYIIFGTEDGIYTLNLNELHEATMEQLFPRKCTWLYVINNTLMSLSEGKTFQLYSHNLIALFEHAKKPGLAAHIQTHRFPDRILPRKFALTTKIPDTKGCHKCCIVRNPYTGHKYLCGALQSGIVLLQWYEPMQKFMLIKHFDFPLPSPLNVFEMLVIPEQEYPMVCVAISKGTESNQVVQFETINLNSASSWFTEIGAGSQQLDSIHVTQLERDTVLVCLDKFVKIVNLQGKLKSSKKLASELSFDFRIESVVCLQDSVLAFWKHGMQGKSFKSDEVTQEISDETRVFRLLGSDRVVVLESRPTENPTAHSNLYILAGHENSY
Sequence of MAP/microtubule affinity-regulating kinase 3 (Homo sapiens) (P27448 whole entry, looked up): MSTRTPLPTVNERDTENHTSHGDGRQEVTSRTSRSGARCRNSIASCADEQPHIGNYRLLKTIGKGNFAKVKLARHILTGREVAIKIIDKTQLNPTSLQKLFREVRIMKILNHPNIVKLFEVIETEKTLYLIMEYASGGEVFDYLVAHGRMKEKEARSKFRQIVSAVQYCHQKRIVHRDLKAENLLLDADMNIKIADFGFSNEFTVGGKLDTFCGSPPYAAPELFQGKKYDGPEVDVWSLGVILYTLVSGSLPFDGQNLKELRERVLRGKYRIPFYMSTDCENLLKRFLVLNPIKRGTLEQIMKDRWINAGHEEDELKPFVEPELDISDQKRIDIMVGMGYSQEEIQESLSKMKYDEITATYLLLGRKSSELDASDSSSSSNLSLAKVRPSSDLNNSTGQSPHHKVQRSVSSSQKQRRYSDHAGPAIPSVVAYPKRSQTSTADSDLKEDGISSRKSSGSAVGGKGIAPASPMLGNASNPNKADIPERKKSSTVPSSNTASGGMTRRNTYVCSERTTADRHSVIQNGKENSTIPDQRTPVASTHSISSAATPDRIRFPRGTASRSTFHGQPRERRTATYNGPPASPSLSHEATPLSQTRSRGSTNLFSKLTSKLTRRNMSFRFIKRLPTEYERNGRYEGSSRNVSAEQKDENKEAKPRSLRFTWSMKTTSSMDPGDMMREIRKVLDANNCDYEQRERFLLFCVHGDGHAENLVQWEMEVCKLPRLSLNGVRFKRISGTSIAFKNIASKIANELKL
Sequence of Serine/threonine-protein kinase D2 (Homo sapiens) (Q9BZL6 whole entry): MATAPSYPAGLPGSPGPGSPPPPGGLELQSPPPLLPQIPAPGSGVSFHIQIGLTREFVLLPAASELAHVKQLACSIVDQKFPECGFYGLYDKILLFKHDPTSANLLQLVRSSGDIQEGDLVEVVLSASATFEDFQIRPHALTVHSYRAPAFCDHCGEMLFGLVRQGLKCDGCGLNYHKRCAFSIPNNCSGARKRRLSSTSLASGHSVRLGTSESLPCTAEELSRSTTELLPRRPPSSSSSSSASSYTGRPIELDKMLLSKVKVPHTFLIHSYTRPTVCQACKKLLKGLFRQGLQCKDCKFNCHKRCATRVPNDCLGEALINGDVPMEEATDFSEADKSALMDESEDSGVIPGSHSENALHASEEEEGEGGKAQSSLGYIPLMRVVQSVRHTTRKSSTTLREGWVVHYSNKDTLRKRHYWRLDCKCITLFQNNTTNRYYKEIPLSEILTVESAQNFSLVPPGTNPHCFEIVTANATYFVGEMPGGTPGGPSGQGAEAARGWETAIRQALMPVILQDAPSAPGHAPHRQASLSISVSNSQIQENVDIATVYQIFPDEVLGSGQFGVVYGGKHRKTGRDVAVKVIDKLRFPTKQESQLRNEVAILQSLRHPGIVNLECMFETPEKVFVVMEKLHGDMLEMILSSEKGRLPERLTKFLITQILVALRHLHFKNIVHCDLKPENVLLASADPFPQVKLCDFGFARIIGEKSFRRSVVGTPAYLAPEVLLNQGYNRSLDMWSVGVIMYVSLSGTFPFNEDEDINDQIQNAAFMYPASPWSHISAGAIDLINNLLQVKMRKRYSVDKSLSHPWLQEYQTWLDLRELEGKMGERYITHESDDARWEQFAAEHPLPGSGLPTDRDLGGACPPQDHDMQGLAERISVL
Sequence of Uncharacterized serine/threonine-protein kinase SBK3 (Homo sapiens) (P0C264 whole entry): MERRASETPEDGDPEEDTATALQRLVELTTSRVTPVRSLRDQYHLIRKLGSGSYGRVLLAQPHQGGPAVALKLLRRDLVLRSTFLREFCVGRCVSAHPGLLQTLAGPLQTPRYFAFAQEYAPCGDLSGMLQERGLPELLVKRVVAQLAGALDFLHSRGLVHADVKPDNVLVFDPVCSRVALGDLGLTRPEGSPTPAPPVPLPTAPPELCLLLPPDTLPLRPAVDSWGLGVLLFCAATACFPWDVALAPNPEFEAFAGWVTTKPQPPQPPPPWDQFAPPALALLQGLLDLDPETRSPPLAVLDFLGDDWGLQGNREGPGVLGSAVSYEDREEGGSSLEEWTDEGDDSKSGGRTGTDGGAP

As to `O=C1c2ccc(Nc3ccc(F)cc3F)cc2CCc2ccc(OC[C@H](O)CO)cc21` [Skepinone-L], the Activity was 90% in [1]; 102% in experiment [2]; 93% in experiment [4]; 83% in experiment [5]; 85% in experiment [6]; 95% in [7]. Further, the Activity in [8] was 98%; in [9] it was 84%; in experiment [10] it was 100%; in experiment [11], 87%. The IC50 (commonly the midpoint of a concentration-inhibition curve) in experiment [3] was 300 nM.

(Values after ChEMBL document CHEMBL5696441 (Nat Chem Biol, 2011).)
